Experimental findings from patent publication US9169481B2, “Cell-mediated directed evolution” (priority 2006, dated 2015) are described below.

The test system of this data set is reverse yeast three-hybrid strain. Put plainly: 5-FOA effect on growth of reverse yeast three-hybrid strain. The class given is cell-based, Saccharomyces cerevisiae. The conditions noted are these: 5-FOA concentrations beyond 0.3%. An excerpt:
First, we recombined the URA3 gene at the ura3-52 locus of our chemical complementation yeast strain, FY251, and selected for Ura^+ phenotype on medium lacking uracil to create VC2169. Next, the vectors carrying the DBD-DHFR and GR-B42 constructs were introduced into VC2169 and selected on plates lacking uracil, histidine, and tryptophan to create VC2291. Finally, we introduced the LexA(4op) and the Spo13 promoter upstream of the URA3 gene and selected for Ura^− phenotype on medium containing 5-FOA. This selection provided numerous reverse three-hybrid colonies. Three colonies were used to optimize the reverse yeast three-hybrid system for the highest fold increase in activation in the presence of 10 μM Mtx-Dex by measuring the difference between cell survival and cell death. Mtx-Dex was used, instead of Mtx-Cel-Dex, for the optimization of the system as the cellulose linker is not necessary for the system's functioning, and the synthesis of Mtx-Dex is simpler than that of Mtx-Cel-Dex. The system was optimized by varying the level of galactose, which affects the concentration of DBD-DHFR and AD-GR in the system, and 5-FOA, which controls the toxicity level of the reporter gene. Galactose levels ranging from 1 to 2% and 5-FOA concentrations ranging from 0.1 to 0.5% were tested simultaneously. […]

Take `O=C(O)c1[nH]c(=O)[nH]c(=O)c1F` [5-FOA, 5-fluoroorotic acid]: the “effect on cell growth” value is on record as “detrimental for cell growth”.
